# Measured values published in US20060204980A1, “Colorectal cancer therapies” (priority 2004, published 2006).
# Experiments:
# [1] = tested on: in vivo adapted p53^+/+ HCT116 cells; assay: Xenograft tumor model with in vivo adapted p53+/+ HCT116 cells; parameters: species or system CB17 SCID/beige mice
# Description: In vivo adapted p53^+/+ HCT116 cells (2.5×10^6) were injected in the flank of CB17 SCID/beige mice (Taconics, Germantown, N.Y.) and allowed to form palpable solid tumors for 4-6 days. […] Tumor measurements were taken daily for a week with a caliper. Tumor volume was calculated according to the formula ½ [length (mm)]×[width (mm)]^2.
# Adapted HCT116 cells in CB-17 SCID/beige mice gave rise to rapidly growing solid tumors over a one-week period. […] See filled-in circles in FIG. 7.
# [2] = tested on: wild-type (WT) or GSK3β^−/− primary murine embryonic fibroblasts (MEF) cells; assay: Western blotting of p53 in wild-type or GSK3β-/- primary MEF cells; assay type: cell-based; parameters: dose or concentration left out as unconfirmed; settings: Purvalanol A, 6-24 hour
# Text: To confirm the link between GSK3β inhibition and p53 modulation in vivo, p53^+/+ HCT116 cells were transfected with wild-type GSK3β or a kinase-dead GSK3β dominant negative mutant (GSK3β DN mutant), previously described in Pap and Cooper, J. Biol. Chem., 273:19929-19932 (1998). Non-transformed wild-type (WT) or GSK3β^−/− primary murine embryonic fibroblasts (MEF) cells, described in Hoeflich et al., Nature, 406:86-90 (2000), were maintained in culture in DMEM supplemented with 10% FCS, 100 U/ml penicillin, and 100 μg/ml streptomycin (all from Invitrogen) in 5% CO2 at 37° C. […] Western blotting was performed as described in Example 2, to evaluate the expression of p53, p21^Waf1/Cip1 or β-actin at 6-24 hour intervals.
# [3] = target: GSK3β (Homo sapiens, UniProt P49841); assay: Immunoprecipitation and GSK3β kinase assay using glycogen synthase-derived peptide substrate, from treated HCT116 cells; assay type: cell-based; parameters: harvested after 6 or 12 hours, and immunoprecipitated with an antibody to GSK3β; endogenous in cells; host or cells: HCT116 (p53+/+) colorectal carcinoma cells; settings: p53+/+ HCT116 cells; Purvalanol A 10 μM, LiCl 30 mM, TDZD 20 μM; 6 or 12 hours
# Chain of GSK3β (P49841 whole entry): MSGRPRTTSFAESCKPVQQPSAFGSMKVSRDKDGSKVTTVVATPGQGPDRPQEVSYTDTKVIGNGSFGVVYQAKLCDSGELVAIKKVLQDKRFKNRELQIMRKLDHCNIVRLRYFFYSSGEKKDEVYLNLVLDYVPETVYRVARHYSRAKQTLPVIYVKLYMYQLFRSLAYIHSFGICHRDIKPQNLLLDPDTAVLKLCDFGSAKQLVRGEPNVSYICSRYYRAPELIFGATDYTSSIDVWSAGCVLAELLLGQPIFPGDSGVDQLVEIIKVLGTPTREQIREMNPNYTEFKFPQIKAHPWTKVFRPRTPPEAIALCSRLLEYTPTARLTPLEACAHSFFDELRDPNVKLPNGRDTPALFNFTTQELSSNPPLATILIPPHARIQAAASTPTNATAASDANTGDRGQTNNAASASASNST
# Description: Immune complexes were mixed with a synthetic peptide containing a GSK3β phosphorylation site derived from the sequence of glycogen synthase (Upstate Biotechnology) in the presence of 10 μCi of γ-^32P-ATP (Amersham Corp., Piscataway, N.J.), after 30 min incubation at 30° C., the reaction mixtures were centrifuged briefly, and 15 μl of the supernatant was spotted onto P81 phosphocellulose paper (Whatman Inc., Clifton, N.J.). The membrane was washed three times with 175 mM phosphoric acid, rinsed once in acetone, and dried. Changes in peptide phosphorylation under the various conditions tested were determined by scintillation counting. Data were analyzed using the unpaired t test on a Graphpad Prism software package for Windows (Graphpad Inc., San Diego, Calif.). A P value of 0.05 was considered as statistically significant.
smiles,measurement,setting,value
CC(C)[C@H](CO)Nc1nc(Nc2cccc(Cl)c2)c2ncn(C(C)C)c2n1 [Purvalanol A],"systemic toxicity, weight loss",[1]; 20 mg/kg i.p. daily for 5 consecutive days,No signs of systemic toxicity or weight loss
same,early tumor growth (tumor volume),[1]; 25 mg/kg i.p. daily for 5 days,significantly inhibited early tumor growth
same,tumor growth (tumor volume),"[1]; 50 mg/kg i.p. injection daily for 5 days, versus lower dose",did not result in further inhibition of tumor growth
same,"local or systemic toxicity, weight loss",[1]; 25 and 50 mg/kg i.p. daily for 5 days,no signs of local or systemic toxicity or weight loss
same,p53 expression (Western blot),[2],did not further modulate p53 expression
same,GSK3β kinase activity (peptide phosphorylation),[3],potently inhibited GSK3β kinase activity
